Like-named read-outs stand apart in the source and are kept apart here.
Assays:
[1] = target: T1, intracellular tyrosinase in B16F10 cells (Mus musculus, UniProt P11344); test: Recovery study of intracellular tyrosinase activity in B16F10 cells; type: cell-based; conditions: for tyrosinase activity after removal of compound: 2 day recovery post 2 day exposure
T1 construct: endogenous in cells; host or cells: B16F10
T1 sequence (P11344 19-533): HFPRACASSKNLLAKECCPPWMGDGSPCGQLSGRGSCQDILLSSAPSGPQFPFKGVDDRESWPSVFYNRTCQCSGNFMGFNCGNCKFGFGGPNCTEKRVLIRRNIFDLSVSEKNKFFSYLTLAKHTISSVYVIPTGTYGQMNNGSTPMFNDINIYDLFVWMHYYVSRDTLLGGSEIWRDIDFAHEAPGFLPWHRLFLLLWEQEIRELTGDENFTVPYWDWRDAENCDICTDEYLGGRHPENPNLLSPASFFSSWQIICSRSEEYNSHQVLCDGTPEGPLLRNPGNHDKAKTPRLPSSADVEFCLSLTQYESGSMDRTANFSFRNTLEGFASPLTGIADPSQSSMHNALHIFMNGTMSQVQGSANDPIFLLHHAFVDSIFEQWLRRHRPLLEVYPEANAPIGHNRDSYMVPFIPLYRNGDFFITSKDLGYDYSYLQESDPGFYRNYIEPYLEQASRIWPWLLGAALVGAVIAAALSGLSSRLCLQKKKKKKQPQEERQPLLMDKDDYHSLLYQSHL
Experimental: In order to establish reversibility of tyrosinase inhibition by the CMCs, we conducted a “recovery” study over a 2 day interval using the highest concentrations of the compounds which produced maximum tyrosinase activity inhibition without toxicity. B16F10 were plated in six-well plates at 3.5×10^4 cells/well and compounds were added (PC-10 μM, CMC2.14-10 μM, CMC2.5-20 μM, CMC2.23-25 μM and CMC2.24 at 20 μM) next day. Tyrosinase activity in one set of cultures after detachment and lysis as described herein was estimated after 2 day exposure while another set of cultures were continued with fresh media without the compounds to study reversibility of tyrosinase activity inhibition for another 2 days. Results are expressed as % tyrosinase activity for both 2 day exposure and 2 day recovery post 2 day exposure.

[2] = target: T2, cellular tyrosinase in HEM-DP cells (Homo sapiens, UniProt P14679); test: Intracellular tyrosinase activity in human melanocytes; type: cell-based; conditions: 48 hours
T2 construct: endogenous in cells; host or cells: HEM-DP (primary human epidermal melanocytes, darkly pigmented donor)
T2 sequence (P14679 19-529): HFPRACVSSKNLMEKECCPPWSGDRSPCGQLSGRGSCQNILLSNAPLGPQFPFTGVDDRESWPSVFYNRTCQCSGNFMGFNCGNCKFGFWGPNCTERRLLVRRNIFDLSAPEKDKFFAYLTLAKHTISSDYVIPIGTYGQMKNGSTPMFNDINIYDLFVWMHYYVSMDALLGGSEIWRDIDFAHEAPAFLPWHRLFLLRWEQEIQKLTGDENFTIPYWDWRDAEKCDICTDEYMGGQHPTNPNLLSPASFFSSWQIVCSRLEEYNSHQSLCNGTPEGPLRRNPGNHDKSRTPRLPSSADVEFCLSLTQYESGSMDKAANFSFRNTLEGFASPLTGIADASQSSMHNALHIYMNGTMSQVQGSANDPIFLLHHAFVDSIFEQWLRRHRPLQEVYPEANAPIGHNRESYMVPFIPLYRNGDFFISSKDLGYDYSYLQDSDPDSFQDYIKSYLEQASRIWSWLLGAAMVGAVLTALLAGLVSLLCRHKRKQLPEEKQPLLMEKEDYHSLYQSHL
Experimental: We quantitated the cellular tyrosinase activity of human melanocytes based on established methods. Briefly, human epidermal melanocytes from a darkly pigmented donor (HEM-DP) were cultured in 12-well tissue culture plates at density of 1.5×10^5 cells/well. After 48 hrs. media was changed and test compounds were added, and further incubated for 48 hrs. At the end of treatments, cells were trypsinized and cell pellets were washed in PBS and lysed with lysis buffer under ice for 30 minutes and then centrifuged to remove cellular debris. 50 μl of lysates were then aliquoted in 96-well microplate and 150 μl of freshly prepared 3 mM L-DOPA was added. The absorbance was then measured kinetically at 475 nm every 30 seconds for 30 minutes at 30° C. using microplate reader (Versamax®). The % inhibition of tyrosinase activity was calculated by determining melanin formation rates from the linear range of the slopes of melanin formation over time for the different samples and calculating % inhibition from the measured velocities of melanin formation.

[3] = target: T3, intracellular tyrosinase in HEM-DP cells (Homo sapiens, UniProt P14679); test: Recovery study of intracellular tyrosinase activity in human melanocytes; type: cell-based
T3 construct: endogenous in cells; host or cells: HEM-DP (primary human epidermal melanocytes, darkly pigmented donor)
T3 sequence (P14679 19-529): T2 sequence (P14679 19-529)
Experimental: In order to study if the melanocytes could recover from inhibited tyrosinase activity after exposure to the CMCs, we employed a model for reversibility of inhibition of tyrosinase activity inhibition. This can establish safety of the compounds since irreversible inhibition of tyrosinase activity could damage melanocyte synthetic machinery with potential loss of the protective function of melanin. […] Briefly, HEM-DP were plated in 6-well plates at 2.3×10^5 cells/well and grown for 3 days and then CMCs were added. Tyrosinase activity was estimated after 2 day exposure in cellular lysates and another set of cultures were continued with fresh media without the compounds for further 5 days (with media change at day 3), in order to study reversibility of melanin inhibition.

HEM-DP cells = test: Melanin content quantification in human epidermal melanocytes; type: cell-based; conditions: 48 hours
Experimental: Primary cultures of human epidermal melanocytes from a darkly pigmented donor were seeded at 2.2×10^5 cells/well in 1.5 ml media in 12-well plates and incubated for 48 hours. The test compounds were added to cultures and controls were treated with 0.16% DMSO, and further incubated for another 48 hours. For evaluation of melanin content, cells in the wells were trypsinized and cell pellets were washed in PBS. After aspiration, 250 μL of 1N NaOH was added and heated to 70° C. to solubilize melanin. The aliquots were then transferred to a 96-well plate and absorbance was read at 475 nm using microplate reader. A portion of the lysate was used to evaluate total protein content using […] bincinchonic acid (BCA) assay (Pierce BCA kit, Thermo Scientific). The absorbance of melanin was normalized to the total protein content for each lysate and reported as % of control.

B16F10 cells = test: Melanin content quantification in B16F10 cells; type: cell-based, mouse; conditions: for inhibition of melanin content / effect on melanin content (words): 48 hours; for effect on melanin content (words): B16F10, tested concentrations; for IC50: B16F10 cells exposed for 48 hours, non-linear curve fitting, read-out: IC50-Melanin Inhibition
Experimental: B16F10 cells were seeded at 1×10^5 cells/well in 1.5 ml media in 12-well plates and incubated for 24 hours. […] For quantification of melanin content, cells were trypsinized and cell pellets were washed in PBS. Cell pellets were also visually observed for lightening of the intracellular pigment. After aspiration, 250 μL of 1N NaOH was added and heated to 70° C. to solubilize melanin. The aliquots were then transferred to a 96-well plate and absorbance was read at 475 nm using a microplate reader. A portion of the lysate was used to evaluate total protein content using BCA assay. The melanin absorbance was normalized by total protein content and expressed as % of control.

HaCaT cells = conditions: HaCaT, 48 hours
Experimental: Briefly, 2×10^4 cells/well were seeded in 96-well plates and after 24 hours, the compounds at concentrations of 5-25 μM were added to the wells and incubated for 48 hours. Absorbance was read after 1 hour of incubation of plates and results were expressed as % of control.

SMILES	tyrosinase activity after removal of compound ([1]; B16F10, 20 μM)	inhibition of cellular tyrosinase activity ([2]; 20 μM)	reduction of tyrosinase activity at the exposure time ([3]; 20 μM, 2 day exposure)	reduction in melanin content (HEM-DP cells; 20 μM)	loss of tyrosinase activity ([1]; B16F10, 10 μM, 2 day exposure)	tyrosinase activity after removal of compound ([1]; B16F10, 10 μM)	inhibition of melanin content (B16F10 cells; B16F10, 10 μM)	effect on melanin content (words) (B16F10 cells)	IC50 (B16F10 cells)	stimulation of cell proliferation (HaCaT cells; 5 μM)	stimulation of cell proliferation (HaCaT cells; 10 μM)	inhibition of cellular tyrosinase activity ([2]; 5 μM)	inhibition of cellular tyrosinase activity ([2]; 10 μM)	inhibition of melanin content (B16F10 cells; B16F10, 25 μM)	effect on melanin content (words) (B16F10 cells; listed as 2.23)	recovery of tyrosinase activity ([3]; 5 days after removal, CMC2.24 10 μM, CMC2.23 and CMC2.5 20 μM)	reduction in melanin content (HEM-DP cells; 10 μM)	stimulation of cell proliferation (HaCaT cells; 20 μM)
COC(=O)C(C(=O)C=Cc1ccc(O)c(OC)c1)C(=O)C=Cc1ccc(O)c(OC)c1 (centres unmarked) [CMC2.5, 4-methoxycarbonyl curcumin]	completely recovered	16%	12%	~20%														
COC(=O)C(C(=O)/C=C/c1ccc(O)cc1)C(=O)/C=C/c1ccc(O)cc1 [CMC2.14]					up to 75%	100%	32.21%	moderate inhibition	15.1 µM	23.2%	15.5%							
COc1cc(/C=C/C(=O)C(C(=O)/C=C/c2ccc(O)c(OC)c2)C(=O)Nc2ccccc2)ccc1O [CMC2.23]		49%		20%				most potent inhibition	24.1 µM		11.3%	25%	35%	46.4%	moderate inhibition	partially recovered	20%	22.9%

Reference: patent publication US10300000B2, “Inhibition of melanogenesis by chemically modified curcumins” (The Research Foundation for The State University of New York, priority 2016, dated 2019)
